IC50 and EPSA data for ten compounds are collected here from US20260022143A1, “Cyclic Peptide Inhibitors of IL-23” (JANSSEN PHARMACEUTICA NV, priority 2022, published 2026).

Starred links: 1 amine or outer side, 2 acyl side, 3 side chain; linkers in the order of their positions; H or OH if unused. Positions of bridges follow the written chain, without caps; N, C: chain ends. Non-standard residues stand in square brackets, D forms with d. Residues, ends and D or L forms follow the SMILES beside them. *: point of attachment. Trp(7-(3-AcNH-Ph)) = CC(=O)Nc1cccc(-c2cccc3c(C[C@H](N)C(=O)O)c[nH]c23)c1; X13 = C[N+]1(Cc2cn(-c3ccc(C[C@H](N[*:1])C(=O)[*:2])cc3)nn2)CCOCC1; X51 = C[N+](C)(C)CCCc1cn(-c2ccc(C[C@H](N[*:1])C(=O)[*:2])cc2)nn1; X27 = C[N+](C)(C)CCc1cn(-c2ccc(C[C@H](N[*:1])C(=O)[*:2])cc2)nn1; Me3N+(CH2)2O(CH2)2O(CH2)2CO = C[N+](C)(C)CCOCCOCCC(=O)*; CH2CH2OCH2CH2OCH2CH2NMe3+ = C[N+](C)(C)CCOCCOCC*; Trp(7-Me) = Cc1cccc2c(C[C@H](N)C(=O)O)c[nH]c12; dLys(Me3) = C[N+](C)(C)CCCC[C@@H](N)C(=O)O; 2Nal = N[C@@H](Cc1ccc2ccccc2c1)C(=O)O; AEF = NCCOc1ccc(C[C@H](N)C(=O)O)cc1; 3Pal = N[C@@H](Cc1cccnc1)C(=O)O; Lys(Me) = CNCCCC[C@H](N)C(=O)O; X53 = C[N+]1(CCOCCOCC*)CCOCC1; Pen = CC(C)(S)[C@H](N)C(=O)O; X8 = C[N+](C)(C)CCCCCCCC*; Thp = NC1(C(=O)O)CCOCC1; Sar = CNCC(=O)O

The target in one data set is T1, IL-23R (Homo sapiens, UniProt Q5VWK5).
T1 construct: host or cells: HEK293
T1 sequence (Q5VWK5 24-629): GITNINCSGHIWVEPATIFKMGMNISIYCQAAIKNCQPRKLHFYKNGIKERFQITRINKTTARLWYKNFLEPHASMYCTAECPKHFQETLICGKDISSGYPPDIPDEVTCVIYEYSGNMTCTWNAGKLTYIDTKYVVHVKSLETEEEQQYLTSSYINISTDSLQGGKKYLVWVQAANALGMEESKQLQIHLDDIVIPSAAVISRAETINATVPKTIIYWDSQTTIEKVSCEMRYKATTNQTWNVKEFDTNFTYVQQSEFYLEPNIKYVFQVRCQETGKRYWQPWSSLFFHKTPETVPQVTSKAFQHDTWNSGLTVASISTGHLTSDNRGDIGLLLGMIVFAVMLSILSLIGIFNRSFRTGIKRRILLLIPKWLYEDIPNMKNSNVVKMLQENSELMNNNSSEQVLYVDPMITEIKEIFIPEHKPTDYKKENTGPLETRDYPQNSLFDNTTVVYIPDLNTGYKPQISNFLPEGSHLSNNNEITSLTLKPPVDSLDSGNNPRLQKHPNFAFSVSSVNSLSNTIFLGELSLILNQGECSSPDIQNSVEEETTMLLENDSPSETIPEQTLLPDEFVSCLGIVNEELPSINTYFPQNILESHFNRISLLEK
Briefly: IL23R Reporter Assay. It is filed as cell-based. As to conditions: HEK293 cells containing IL-23R, IL-12RP1 and STAT-inducible firefly luciferase reporter; 10 ng/mL IL-23 (EC90); 5 h at 37° C.; read-out: IL23R Reporter Assay.

Data set [1] in a line: Exposed Polar Surface Area (EPSA). It is filed as physicochemical. The conditions noted are these: SFC on Chirex 3014 column; sample 1 mM DMSO stock; read-out: EPSA. An outline of the steps:
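Retention-based polarity: supercritical CO2 with 20 mM ammonium formate in MeOH (5–60%, 20%/min), Chirex 3014 column, 35 °C. Calibrated against 8 standards to give EPSA (Å^2); each sample measured twice.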

In the case of `CC(=O)NCCCC[C@@H]1NC(=O)[C@H](Cc2c[nH]c3c(C)cccc23)NC(=O)[C@H]([C@@H](C)O)NC(=O)[C@H](CC(N)=O)NC(=O)[C@@H](NC(C)=O)C(C)(C)SSC(C)(C)[C@@H](C(=O)N[C@@H](Cc2ccc(-n3cc(CC[N+](C)(C)C)nn3)cc2)C(=O)N[C@@H](Cc2ccc3ccccc3c2)C(=O)NC2(C(=O)N[C@@H](CCC(=O)O)C(=O)N[C@@H](CC(N)=O)C(=O)N[C@@H](Cc3cccnc3)C(=O)N(C)CC(N)=O)CCOCC2)NC1=O` [compound 454] (Ac-[Pen]NT[Trp(7-Me)]K(Ac)[Pen][X27][2Nal][Thp]EN[3Pal][Sar]-NH2; disulfide 1-6 (inferred)), the IC50 at IL-23R came to 2.1 nM. In data set [1], the EPSA worked out at 176 A^2.
Turning to `CC(=O)NCCCC[C@@H]1NC(=O)[C@H](Cc2c[nH]c3c(C)cccc23)NC(=O)[C@H]([C@@H](C)O)NC(=O)[C@H](CC(N)=O)NC(=O)[C@@H](NC(C)=O)C(C)(C)SSC(C)(C)[C@@H](C(=O)N[C@@H](Cc2ccc(OCCOCCOCC[N+]3(C)CCOCC3)cc2)C(=O)N[C@@H](Cc2ccc3ccccc3c2)C(=O)NC2(C(=O)N[C@@H](CCCCNC(C)=O)C(=O)N[C@@H](CC(N)=O)C(=O)N[C@@H](Cc3cccnc3)C(=O)N(C)CC(N)=O)CCOCC2)NC1=O` [compound 455] (Ac-[Pen]NT[Trp(7-Me)]K(Ac)[Pen]Y(X53)[2Nal][Thp]K(Ac)N[3Pal][Sar]-NH2; disulfide 1-6), the IC50 at IL-23R was 2.1 nM. Also, in data set [1], the EPSA amounted to 158 A^2.
On to `CC(=O)NCCCC[C@@H]1NC(=O)[C@H](Cc2c[nH]c3c(C)cccc23)NC(=O)[C@H]([C@@H](C)O)NC(=O)[C@H](CC(N)=O)NC(=O)[C@@H](NC(C)=O)C(C)(C)SSC(C)(C)[C@@H](C(=O)N[C@@H](Cc2ccc(OCCCCCCCC[N+](C)(C)C)cc2)C(=O)N[C@@H](Cc2ccc3ccccc3c2)C(=O)NC2(C(=O)N[C@@H](CCCCNC(C)=O)C(=O)N[C@@H](CC(N)=O)C(=O)N[C@@H](Cc3cccnc3)C(=O)N(C)CC(N)=O)CCOCC2)NC1=O` [compound 456] (Ac-[Pen]NT[Trp(7-Me)]K(Ac)[Pen]Y(X8)[2Nal][Thp]K(Ac)N[3Pal][Sar]-NH2; disulfide 1-6 (inferred)), for which the IC50 at IL-23R was determined as 1.5 nM. Besides, the EPSA in data set [1] turned out to be 156 A^2.
For `CC(=O)NCCCC[C@@H]1NC(=O)[C@H](Cc2c[nH]c3c(C)cccc23)NC(=O)[C@H]([C@@H](C)O)NC(=O)[C@H](CC(N)=O)NC(=O)[C@@H](NC(C)=O)C(C)(C)SSC(C)(C)[C@@H](C(=O)N[C@@H](Cc2ccc(-n3cc(CCC[N+](C)(C)C)nn3)cc2)C(=O)N[C@@H](Cc2ccc3ccccc3c2)C(=O)NC2(C(=O)N[C@@H](CCC(=O)O)C(=O)N[C@@H](CC(N)=O)C(=O)N[C@@H](Cc3cccnc3)C(=O)N(C)CC(N)=O)CCOCC2)NC1=O` [compound 458] (Ac-[Pen]NT[Trp(7-Me)]K(Ac)[Pen][X51][2Nal][Thp]EN[3Pal][Sar]-NH2; disulfide 1-6 (inferred)) the same measures were 2.6 nM and 172 A^2.
In the case of `CC(=O)NCCCC[C@@H]1NC(=O)[C@H](Cc2c[nH]c3c(C)cccc23)NC(=O)[C@H]([C@@H](C)O)NC(=O)[C@H](CC(N)=O)NC(=O)[C@@H](NC(C)=O)C(C)(C)SSC(C)(C)[C@@H](C(=O)N[C@@H](Cc2ccc(-n3cc(C[N+]4(C)CCOCC4)nn3)cc2)C(=O)N[C@@H](Cc2ccc3ccccc3c2)C(=O)NC2(C(=O)N[C@@H](CCC(=O)O)C(=O)N[C@@H](CC(N)=O)C(=O)N[C@@H](Cc3cccnc3)C(=O)N(C)CC(N)=O)CCOCC2)NC1=O` [compound 459] (Ac-[Pen]NT[Trp(7-Me)]K(Ac)[Pen][X13][2Nal][Thp]EN[3Pal][Sar]-NH2; disulfide 1-6 (inferred)), on IL-23R, the IC50 came to 1.8 nM. Besides, in data set [1], the EPSA stood at 178 A^2.
For `CC(=O)NCCCC[C@@H]1NC(=O)[C@H](Cc2c[nH]c3c(-c4cccc(NC(C)=O)c4)cccc23)NC(=O)[C@H]([C@@H](C)O)NC(=O)[C@H](CC(N)=O)NC(=O)[C@@H](NC(=O)[C@@H](CCCC[N+](C)(C)C)NC(C)=O)C(C)(C)SSC(C)(C)[C@@H](C(=O)N[C@@H](Cc2ccc(OCCN)cc2)C(=O)N[C@@H](Cc2ccc3ccccc3c2)C(=O)NC2(C(=O)N[C@@H](CCC(=O)O)C(=O)N[C@@H](CC(N)=O)C(=O)N[C@@H](Cc3cccnc3)C(=O)N(C)CC(N)=O)CCOCC2)NC1=O` [compound 461] (Ac-[dLys(Me3)][Pen]NT[Trp(7-(3-AcNH-Ph))]K(Ac)[Pen][AEF][2Nal][Thp]EN[3Pal][Sar]-NH2; disulfide 2-7 (inferred)) the same measures were 1.4 nM and 192 A^2.
In the case of `CC(=O)N(C)CCCC[C@H](NC(=O)[C@H](CC(C)C)NC(=O)[C@H](Cc1ccc2ccccc2c1)NC(=O)[C@H](Cc1ccc(OCCOCCOCC[N+](C)(C)C)cc1)NC(=O)[C@H]1NC(=O)[C@H](CC(C)C)NC(=O)[C@H](Cc2c[nH]c3c(C)cccc23)NC(=O)[C@H]([C@@H](C)O)NC(=O)[C@H](CC(C)C)NC(=O)[C@@H](NC(=O)CCOCCOCC[N+](C)(C)C)C(C)(C)SSC1(C)C)C(=O)N[C@@H](CC(N)=O)C(=O)N[C@@H](Cc1cccnc1)C(=O)N(C)CC(=O)N(C)C` [compound 463, cPEG3aCO-Pen(3)-L-T-7MeW-L-Pen(3)-APEG3f-2Nal-L-K(NMeAc)-N-3Pya-Sar-CON(Me)2] ({Me3N+(CH2)2O(CH2)2O(CH2)2CO}-[Pen]LT[Trp(7-Me)]L[Pen]Y(CH2CH2OCH2CH2OCH2CH2NMe3+)[2Nal]L[Lys(Me)](Ac)N[3Pal][Sar]-NMe2; disulfide 1-6), the IC50 at IL-23R stood at 9 nM. Further, in data set [1], the EPSA was found to be 151 A^2.
With `CC(=O)N(C)CCCC[C@H](NC(=O)[C@H](Cc1ccccc1)NC(=O)[C@H](Cc1ccc2ccccc2c1)NC(=O)[C@H](Cc1ccc(OCCOCCOCC[N+](C)(C)C)cc1)NC(=O)[C@H]1NC(=O)[C@H](Cc2ccccc2)NC(=O)[C@H](Cc2c[nH]c3c(C)cccc23)NC(=O)[C@H]([C@@H](C)O)NC(=O)[C@H](Cc2ccccc2)NC(=O)[C@@H](NC(=O)CCOCCOCC[N+](C)(C)C)C(C)(C)SSC1(C)C)C(=O)N[C@@H](CC(N)=O)C(=O)N[C@@H](Cc1cccnc1)C(=O)N(C)CC(=O)N(C)C` [compound 464, cPEG3aCO-Pen(3)-F-T-7MeW-F-Pen(3)-APEG3f-2Nal-F-K(NMeAc)-N-3Pya-Sar-CON(Me)2] ({Me3N+(CH2)2O(CH2)2O(CH2)2CO}-[Pen]FT[Trp(7-Me)]F[Pen]Y(CH2CH2OCH2CH2OCH2CH2NMe3+)[2Nal]F[Lys(Me)](Ac)N[3Pal][Sar]-NMe2; disulfide 1-6), the IC50 at IL-23R was determined as 30 nM. Besides, in data set [1], the EPSA was 160 A^2.
Turning to `CC(=O)N(C)CCCC[C@@H]1NC(=O)[C@H](Cc2c[nH]c3c(C)cccc23)NC(=O)[C@H]([C@@H](C)O)NC(=O)[C@H](CC(=O)N(C)C)NC(=O)[C@@H](NC(=O)CCOCCOCC[N+](C)(C)C)C(C)(C)SSC(C)(C)[C@@H](C(=O)N[C@@H](Cc2ccc(OCCOCCOCC[N+](C)(C)C)cc2)C(=O)N[C@@H](Cc2ccc3ccccc3c2)C(=O)NC2(C(=O)N[C@@H](C)C(=O)N[C@@H](CC(N)=O)C(=O)N[C@@H](Cc3cccnc3)C(=O)N(C)CC(=O)N(C)C)CCOCC2)NC1=O` [compound 466, cPEG3aCO-Pen(3)-N(N(Me)2)-T-7MeW-K(NMeAc)-Pen(3)-APEG3F-2Nal-THP-A-N-3Pya-Sar-CON(Me)2] ({Me3N+(CH2)2O(CH2)2O(CH2)2CO}-[Pen]D(NMe2)T[Trp(7-Me)][Lys(Me)](Ac)[Pen]Y(CH2CH2OCH2CH2OCH2CH2NMe3+)[2Nal][Thp]AN[3Pal][Sar]-NMe2; disulfide 1-6), the IC50 at IL-23R came to 1.8 nM. In addition, in data set [1], the EPSA came to 153 A^2.
For `CC(=O)N(C)CCCC[C@@H]1NC(=O)[C@H](Cc2c[nH]c3c(C)cccc23)NC(=O)[C@H]([C@@H](C)O)NC(=O)[C@H](CC(=O)N(C)C)NC(=O)[C@@H](NC(=O)CCOCCOCC[N+](C)(C)C)C(C)(C)SSC(C)(C)[C@@H](C(=O)N[C@@H](Cc2ccc(OCCOCCOCC[N+](C)(C)C)cc2)C(=O)N[C@@H](Cc2ccc3ccccc3c2)C(=O)NC2(C(=O)N[C@@H](CC(C)C)C(=O)N[C@@H](CC(N)=O)C(=O)N[C@@H](Cc3cccnc3)C(=O)N(C)CC(=O)N(C)C)CCOCC2)NC1=O` [compound 467, cPEG3aCO-Pen(3)-N(N(Me)2)-T-7MeW-K(NMeAc)-Pen(3)-APEG3F-2Nal-THP-L-N-3Pya-Sar-CON(Me)2] ({Me3N+(CH2)2O(CH2)2O(CH2)2CO}-[Pen]D(NMe2)T[Trp(7-Me)][Lys(Me)](Ac)[Pen]Y(CH2CH2OCH2CH2OCH2CH2NMe3+)[2Nal][Thp]LN[3Pal][Sar]-NMe2; disulfide 1-6) the same measures were 1.2 nM and 154 A^2.
